Results taken from patent US20110034414A1, “FLUOROALKYLOXY ALKANES, PROCESS FOR PRODUCTION AND USES THEREOF” (AL.CHI.MI.A. S.R.L., priority 2008, published 2011).

Tests used:
[1] = Clarity (solubility) of mixtures of fluoroalkyloxy alkane with silicone oil 1,000 cS; assay type: physicochemical; parameters: key: ++: the mixture is clear after stirring at room temperature; +: the mixture is opalescent after stirring at room temperature, it becomes clear after heating at 37° C
Description: Various mixtures comprising a fluoroalkyloxy alkane obtained according to Examples 1, 3 and 4 and a silicone oil having a viscosity of 1,000 cS (at 20° C.) were prepared.
Table 3 contains the amounts of fluoroalkyloxy alkane in the various mixtures (expressed as weight % on the total weight of the mixture), and the result in terms of clarity of the solution at different temperatures.

[2] = Clarity (solubility) of mixtures of fluoroalkyloxy alkane with silicone oil 5,000 cS; assay type: physicochemical; parameters: key: ++: the mixture is clear after stirring at room temperature; +: the mixture is opalescent after stirring at room temperature, it becomes clear after heating at 37° C
Description: Various mixtures comprising a fluoroalkyloxy alkane obtained according to Examples 1, 3 and 4 and a silicone oil having a viscosity of 5,000 cS (at 20° C.) were prepared.
Table 4 contains the amounts of fluoroalkyloxy alkane in the various mixtures (expressed as weight % on the total weight of the mixture), and the result in terms of clarity of the solution at different temperatures.

[3] = 33% by weight fluoroalkyloxy alkane in silicone oil 1,000 cS (at 20° C.)
[4] = 43% by weight fluoroalkyloxy alkane in silicone oil 1,000 cS (at 20° C.)
[5] = 50% by weight fluoroalkyloxy alkane in silicone oil 1,000 cS (at 20° C.)
[6] = 60% by weight fluoroalkyloxy alkane in silicone oil 1,000 cS (at 20° C.)
[7] = 90% by weight fluoroalkyloxy alkane in silicone oil 1,000 cS (at 20° C.)
[8] = 33% by weight fluoroalkyloxy alkane in silicone oil 5,000 cS (at 20° C.)
[9] = 43% by weight fluoroalkyloxy alkane in silicone oil 5,000 cS (at 20° C.)
[10] = 50% by weight fluoroalkyloxy alkane in silicone oil 5,000 cS (at 20° C.)
[11] = 60% by weight fluoroalkyloxy alkane in silicone oil 5,000 cS (at 20° C.)
[12] = 90% by weight fluoroalkyloxy alkane in silicone oil 5,000 cS (at 20° C.)

CCCOCCC(F)(F)C(F)(F)C(F)(F)C(F)(F)F [CF3(CF2)3CH2CH2O(CH2)2CH3]
clarity of the solution [1, 3]: ++ | clarity of the solution [1, 4]: ++ | clarity of the solution [1, 5]: ++ | clarity of the solution [1, 6]: ++ | clarity of the solution [1, 7]: ++ | clarity of the solution [2, 8]: ++ | clarity of the solution [2, 9]: ++ | clarity of the solution [2, 10]: ++ | clarity of the solution [2, 11]: ++ | clarity of the solution [2, 12]: ++

CCCCCOCCC(F)(F)C(F)(F)C(F)(F)C(F)(F)F [CF3(CF2)3CH2CH2O(CH2)4CH3]
clarity of the solution [1, 3]: ++ | clarity of the solution [1, 4]: ++ | clarity of the solution [1, 5]: ++ | clarity of the solution [1, 6]: ++ | clarity of the solution [1, 7]: ++ | clarity of the solution [2, 8]: ++ | clarity of the solution [2, 9]: ++ | clarity of the solution [2, 10]: ++ | clarity of the solution [2, 11]: ++ | clarity of the solution [2, 12]: ++

CCCCCOCCC(F)(F)C(F)(F)C(F)(F)C(F)(F)C(F)(F)C(F)(F)F [CF3(CF2)5CH2CH2O(CH2)4CH3]
clarity of the solution ([1]; 20% by weight fluoroalkyloxy alkane in silicone oil 1,000 cS (at 20° C.)): ++ | clarity of the solution [1, 3]: ++ | clarity of the solution [1, 4]: + | clarity of the solution [1, 5]: + | clarity of the solution ([2]; 20% by weight fluoroalkyloxy alkane in silicone oil 5,000 cS (at 20° C.)): ++ | clarity of the solution [2, 8]: ++ | clarity of the solution [2, 9]: + | clarity of the solution [2, 10]: +
